In this assay the test system is rat small-intestinal brush border membrane vesicles. Put plainly: Inhibitory effect on 33PO4 uptake into rat small-intestinal brush border membrane vesicles (rapid filtration method). Format: biochemical. The following applies: 33PO4 uptake into rat small-intestinal BBMVs; test compound 1 µM; reacted for 60 seconds. The method, boiled down:
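Uptake of ^33PO4 was measured by rapid filtration and liquid scintillation counting of filter-retained vesicles, after quenching with ice-cold 110 mM NaCl/1 mM KH2PO4/10 mM HEPES pH 7.5. Vesicles were brush border membranes from the upper small intestine of female Wistar rats aged 4–5 weeks.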

For the molecule `CN1N(Cc2ccc(OCCN3CCOCC3)c(F)c2F)C(=O)C(C(=O)Nc2ccc(C(F)(F)F)cc2-c2ccc(C(F)(F)F)nc2)=C(O)C1(C)C` [Example 314, 2-[[2,3-Difluoro-4-(2-morpholin-4-ylethoxy)phenyl)methyl]-5-hydroxy-1,6,6-trimethyl-3-oxo-N-[4-(trifluoromethyl)-2-[6-(trifluoromethyl)pyridin-3-yl]phenyl]pyridazine-4-carboxamide], the “Rate of uptake inhibition (%) (1 µM)” value is given as 72%. Turning to `CN1N(Cc2ccc(C#CCN3CCOCC3)c(F)c2F)C(=O)C(C(=O)Nc2ccc(C(F)(F)F)cc2-c2cc(C(F)(F)F)ncn2)=C(O)C1(C)C` [Example 315, 2-[[2,3-Difluoro-4-(3-morpholin-4-ylprop-1-ynil)phenyl]methyl]-5-hydroxy-1,6,6-trimethyl-3-oxo-N-[4-(trifluoromethyl)-2-[6-(trifluoromethyl)pyrimidin-4-yl]phenyl]pyridazine-4-carboxamide], the “Rate of uptake inhibition (%) (1 µM)” value was 63%. As for `CN1N(Cc2ccc(C#CCN3CCOCC3)c(F)c2F)C(=O)C(C(=O)Nc2ccc(Cl)cc2-c2cc(C(F)(F)F)ncn2)=C(O)C1(C)C` [Example 316, N-[4-Chloro-2-[6-(trifluoromethyl)pyrimidin-4-yl]phenyl]-2-[[2,3-difluoro-4-(3-morpholin-4-ylprop-1-ynil)phenyl]methyl]-5-hydroxy-1,6,6-trimethyl-3-oxopyridaxine-4-carboxamide], the “Rate of uptake inhibition (%) (1 µM)” value was 64%.

As for `CN1N(Cc2ccc(OCCN3CCOCC3)c(F)c2F)C(=O)C(C(=O)Nc2ccc(C(F)(F)F)cc2-c2cc(C(F)(F)F)ncn2)=C(O)C12CCCC2` [Example 318, 7-[[2,3-Difluoro-4-(2-morpholin-4-ylethoxy)phenyl]methyl]-10-hydroxy-6-methyl-8-oxo-N-[4-(trifluoromethyl)-2-[6-(tritluoromethyl)pyrimidin-4-yl]phenyl]-6,7-diazaspiro[4.5]dec-9-ene-9-carboxamide], the “Rate of uptake inhibition (%) (1 µM)” value is 43%. As for `CN1N(Cc2ccc(OCCCC(=O)O)c(F)c2F)C(=O)C(C(=O)Nc2ccc(C(F)(F)F)cc2-c2cc(C(F)(F)F)ncn2)=C(O)C12CCCC2` [Example 332, 4-[2,3-Difluoro-4-[[10-hydroxy-6-methyl-8-oxo-9-[[4-(trifluoromethyl)-2-[6-(trifluoromethyl)pyrimidin-4-yl]phenyl]carbamoyl]-6,7-diazaspiro[4.5]dec-9-en-7-yl]methyl]phenoxy]butanoate], the “Rate of uptake inhibition (%) (1 µM)” value is 3%. For `CN1N(Cc2ccc(OCCCCCC(=O)O)c(F)c2F)C(=O)C(C(=O)Nc2ccc(C(F)(F)F)cc2-c2cc(C(F)(F)F)ncn2)=C(O)C12CCCC2` [Example 334], the “Rate of uptake inhibition (%) (1 µM)” value is recorded as 22%. Turning to `CN1N(Cc2ccc(OCCCCCCC(=O)O)c(F)c2F)C(=O)C(C(=O)Nc2ccc(C(F)(F)F)cc2-c2cc(C(F)(F)F)ncn2)=C(O)C12CCCC2` [Example 335], the “Rate of uptake inhibition (%) (1 µM)” value was determined as 30%. The result for `CN1N(Cc2ccc(OCC(=O)N3CCOCC3)c(F)c2F)C(=O)C(C(=O)Nc2ccc(C(F)(F)F)cc2-c2cc(C(F)(F)F)ncn2)=C(O)C12CCC2` [Example 336] reads 44%; that for `CN1N(Cc2ccc(OCCN3CCOC(=O)C3)c(F)c2F)C(=O)C(C(=O)Nc2ccc(C(F)(F)F)cc2-c2cc(C(F)(F)F)ncn2)=C(O)C12CCC2` [Example 337, 8-[[2,3-Difluoro-4-[2-(2-oxomorpholin-4-yl)ethoxy]phenyl]methyl]-5-hydroxy-9-methyl-7-oxo-N-[4-(trifluoromethyl)-2-[6-(trifluoromethyl)pyrimidin-4-yl]phenyl)-8.9-diazaspiro [3. 5]non-5-ene-6-carboxamide], 47%. Regarding `CN(CCOc1ccc(CN2C(=O)C(C(=O)Nc3ccc(C(F)(F)F)cc3-c3cc(C(F)(F)F)ncn3)=C(O)C3(CCC3)N2C)c(F)c1F)C1CCOC1` (centres unmarked) [Example 338, 6-[[2,3-Difluoro-4-[2-[methyl(oxolan-3-yl)amino]ethoxy]phenyl]methyl]-9-hydroxy-5-methyl-7-oxo-N-[4-(trifluoromethyl)-2-[6-(trifluoromethyl)pyrimidin-4-yl]phenyl]-5,6-diazaspiro[3.5]non-8-ene-8-carboxamide], the “Rate of uptake inhibition (%) (1 µM)” value came to 66%. Regarding `CN1N(Cc2ccc(OCCN3[C@@H]4COC[C@H]3C4)c(F)c2F)C(=O)C(C(=O)Nc2ccc(C(F)(F)F)cc2-c2cc(C(F)(F)F)ncn2)=C(O)C12CCC2` [Example 339], the “Rate of uptake inhibition (%) (1 µM)” value was 66%. As to `CN1N(Cc2ccc(OCCN3C4CCC3COC4)c(F)c2F)C(=O)C(C(=O)Nc2ccc(C(F)(F)F)cc2-c2cc(C(F)(F)F)ncn2)=C(O)C12CCC2` [Example 340], the “Rate of uptake inhibition (%) (1 µM)” value was 63%. Consider `CN1N(Cc2ccc(OCCN3CCOCC3(C)C)c(F)c2F)C(=O)C(C(=O)Nc2ccc(C(F)(F)F)cc2-c2cc(C(F)(F)F)ncn2)=C(O)C12CCC2` [Example 341], for which the “Rate of uptake inhibition (%) (1 µM)” value is reported as 64%.

For the molecule `CN1N(Cc2ccc(OCCN3CCOC(C)(C)C3)c(F)c2F)C(=O)C(C(=O)Nc2ccc(C(F)(F)F)cc2-c2cc(C(F)(F)F)ncn2)=C(O)C12CCC2` [Example 342], the “Rate of uptake inhibition (%) (1 µM)” value is 43%. The result for `C[C@H]1COC[C@H](C)N1CCOc1ccc(CN2C(=O)C(C(=O)Nc3ccc(C(F)(F)F)cc3-c3cc(C(F)(F)F)ncn3)=C(O)C3(CCC3)N2C)c(F)c1F` [Example 343] reads 68%. For the molecule `C[C@@H]1COC[C@H](C)N1CCOc1ccc(CN2C(=O)C(C(=O)Nc3ccc(C(F)(F)F)cc3-c3cc(C(F)(F)F)ncn3)=C(O)C3(CCC3)N2C)c(F)c1F` [Example 344], the “Rate of uptake inhibition (%) (1 µM)” value was 58%.

For `COC(=O)CN(C)CCOc1ccc(CN2C(=O)C(C(=O)Nc3ccc(C(F)(F)F)cc3-c3cc(C(F)(F)F)ncn3)=C(O)C3(CCC3)N2C)c(F)c1F` [Example 346], the “Rate of uptake inhibition (%) (1 µM)” value was determined as 42%. `CN(CCO)CCOc1ccc(CN2C(=O)C(C(=O)Nc3ccc(C(F)(F)F)cc3-c3cc(C(F)(F)F)ncn3)=C(O)C3(CCC3)N2C)c(F)c1F` [Example 347]: the “Rate of uptake inhibition (%) (1 µM)” value is reported as 28%. The result for `COCCN(CCOC)CCOc1ccc(CN2C(=O)C(C(=O)Nc3ccc(C(F)(F)F)cc3-c3cc(C(F)(F)F)ncn3)=C(O)C3(CCC3)N2C)c(F)c1F` [Example 348] reads 31%; that for `COCC(C)(C)N(C)CCOc1ccc(CN2C(=O)C(C(=O)Nc3ccc(C(F)(F)F)cc3-c3cc(C(F)(F)F)ncn3)=C(O)C3(CCC3)N2C)c(F)c1F` [Example 349], 55%; that for `COC(C)(C)CN(C)CCOc1ccc(CN2C(=O)C(C(=O)Nc3ccc(C(F)(F)F)cc3-c3cc(C(F)(F)F)ncn3)=C(O)C3(CCC3)N2C)c(F)c1F` [Example 350], 45%. In the case of `CN1N(Cc2ccc(OCCN(CCO)CCO)c(F)c2F)C(=O)C(C(=O)Nc2ccc(C(F)(F)F)cc2-c2cc(C(F)(F)F)ncn2)=C(O)C12CCC2` [Example 351], the “Rate of uptake inhibition (%) (1 µM)” value is listed as 22%. With `CN1N(Cc2ccc(OCCn3cncn3)c(F)c2F)C(=O)C(C(=O)Nc2ccc(C(F)(F)F)cc2-c2cc(C(F)(F)F)ncn2)=C(O)C12CCC2` [Example 352], the “Rate of uptake inhibition (%) (1 µM)” value is 27%. As to `CC(=O)NCCN(C)CCOc1ccc(CN2C(=O)C(C(=O)Nc3ccc(C(F)(F)F)cc3-c3cc(C(F)(F)F)ncn3)=C(O)C3(CCC3)N2C)c(F)c1F` [Example 353], the “Rate of uptake inhibition (%) (1 µM)” value was 26%. Regarding `CC(=O)N(C)CCN(C)CCOc1ccc(CN2C(=O)C(C(=O)Nc3ccc(C(F)(F)F)cc3-c3cc(C(F)(F)F)ncn3)=C(O)C3(CCC3)N2C)c(F)c1F` [Example 354], the “Rate of uptake inhibition (%) (1 µM)” value is 31%.

Consider `COC(=O)[C@@H]1CCCN1CCOc1ccc(CN2C(=O)C(C(=O)Nc3ccc(C(F)(F)F)cc3-c3cc(C(F)(F)F)ncn3)=C(O)C3(CCC3)N2C)c(F)c1F` [Example 355], for which the “Rate of uptake inhibition (%) (1 µM)” value was found to be 36%.

`COC1(C)CN(CCOc2ccc(CN3C(=O)C(C(=O)Nc4ccc(C(F)(F)F)cc4-c4cc(C(F)(F)F)ncn4)=C(O)C4(CCC4)N3C)c(F)c2F)C1` [Example 356]: the “Rate of uptake inhibition (%) (1 µM)” value was found to be 58%. In the case of `CSC1CN(CCOc2ccc(CN3C(=O)C(C(=O)Nc4ccc(C(F)(F)F)cc4-c4cc(C(F)(F)F)ncn4)=C(O)C4(CCC4)N3C)c(F)c2F)C1` [Example 357], the “Rate of uptake inhibition (%) (1 µM)” value came to 45%. Consider `CN1N(Cc2ccc(OCCN3CCC(N4CCOCC4)CC3)c(F)c2F)C(=O)C(C(=O)Nc2ccc(C(F)(F)F)cc2-c2cc(C(F)(F)F)ncn2)=C(O)C12CCC2` [Example 358], for which the “Rate of uptake inhibition (%) (1 µM)” value amounted to 34%. Regarding `CN1CCN(CCOc2ccc(CN3C(=O)C(C(=O)Nc4ccc(C(F)(F)F)cc4-c4cc(C(F)(F)F)ncn4)=C(O)C4(CCC4)N3C)c(F)c2F)CC1=O` [Example 359], the “Rate of uptake inhibition (%) (1 µM)” value stood at 37%. The result for `CN1N(Cc2ccc(OCCN3CCN(CCO)CC3)c(F)c2F)C(=O)C(C(=O)Nc2ccc(C(F)(F)F)cc2-c2cc(C(F)(F)F)ncn2)=C(O)C12CCC2` [Example 360] reads 21%. For `CN1N(Cc2ccc(OCCN3CCN(CCOCCO)CC3)c(F)c2F)C(=O)C(C(=O)Nc2ccc(C(F)(F)F)cc2-c2cc(C(F)(F)F)ncn2)=C(O)C12CCC2` [Example 361], the “Rate of uptake inhibition (%) (1 µM)” value came out at 20%. For the molecule `CN1N(Cc2ccc(OCCN3CCN(CCCO)CC3)c(F)c2F)C(=O)C(C(=O)Nc2ccc(C(F)(F)F)cc2-c2cc(C(F)(F)F)ncn2)=C(O)C12CCC2` [Example 362], the “Rate of uptake inhibition (%) (1 µM)” value is 17%.

`CN1N(Cc2ccc(OCCN3CCN(S(C)(=O)=O)CC3)c(F)c2F)C(=O)C(C(=O)Nc2ccc(C(F)(F)F)cc2-c2cc(C(F)(F)F)ncn2)=C(O)C12CCC2` [Example 363]: the “Rate of uptake inhibition (%) (1 µM)” value stood at 11%. In the case of `CN(C)C(=O)N1CCN(CCOc2ccc(CN3C(=O)C(C(=O)Nc4ccc(C(F)(F)F)cc4-c4cc(C(F)(F)F)ncn4)=C(O)C4(CCC4)N3C)c(F)c2F)CC1` [Example 364], the “Rate of uptake inhibition (%) (1 µM)” value was 36%.

The record behind these values is patent EP3928779A1 (Chugai Seiyaku Kabushiki Kaisha, priority 2014, dated 2016).
